For 19 compounds, IC50 results are on record in patent US20210395239A1 (Hoffmann-La Roche Inc., priority 2018, published 2021).

Structures are written as SMILES.

The target of this test is T1, human TLR8 (Homo sapiens, UniProt Q9NR97).
T1 construct: host or cells: HEK293 (HEK-Blue hTLR8)
T1 sequence (Q9NR97 27-1041): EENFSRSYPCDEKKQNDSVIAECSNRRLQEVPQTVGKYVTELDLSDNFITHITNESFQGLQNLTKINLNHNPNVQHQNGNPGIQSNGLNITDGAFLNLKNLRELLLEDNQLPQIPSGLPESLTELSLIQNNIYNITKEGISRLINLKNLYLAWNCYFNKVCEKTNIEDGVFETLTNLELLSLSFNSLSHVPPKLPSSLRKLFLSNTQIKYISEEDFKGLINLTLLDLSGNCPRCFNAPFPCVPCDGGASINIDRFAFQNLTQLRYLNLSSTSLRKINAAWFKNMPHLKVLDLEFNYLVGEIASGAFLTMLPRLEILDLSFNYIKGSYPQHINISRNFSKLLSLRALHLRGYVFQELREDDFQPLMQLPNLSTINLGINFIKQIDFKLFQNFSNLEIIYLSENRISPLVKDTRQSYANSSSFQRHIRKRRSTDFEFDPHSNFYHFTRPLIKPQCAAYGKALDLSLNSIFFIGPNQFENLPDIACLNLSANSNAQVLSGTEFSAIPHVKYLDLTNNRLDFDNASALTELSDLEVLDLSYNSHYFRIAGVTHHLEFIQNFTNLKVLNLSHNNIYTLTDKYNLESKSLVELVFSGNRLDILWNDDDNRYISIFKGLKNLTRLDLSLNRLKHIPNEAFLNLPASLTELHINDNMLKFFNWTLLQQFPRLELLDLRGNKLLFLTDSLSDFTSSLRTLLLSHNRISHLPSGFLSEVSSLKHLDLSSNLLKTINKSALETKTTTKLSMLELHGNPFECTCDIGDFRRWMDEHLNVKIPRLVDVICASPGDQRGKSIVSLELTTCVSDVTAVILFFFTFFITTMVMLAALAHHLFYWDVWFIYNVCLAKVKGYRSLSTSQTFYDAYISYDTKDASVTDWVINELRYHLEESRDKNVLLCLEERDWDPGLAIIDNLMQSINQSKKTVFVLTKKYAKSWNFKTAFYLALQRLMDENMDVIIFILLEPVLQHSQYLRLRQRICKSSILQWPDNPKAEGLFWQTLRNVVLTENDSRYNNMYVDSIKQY
Nature of the test: HEK293-Blue-hTLR-8 cells assay (SEAP reporter, R848 stimulation). To be noted: HEK293-Blue-hTLR8 cells, R848, 20 hrs; read-out: HEK/hTLR8 IC50. The format is cell-based. The method, boiled down: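 Antagonism read as reduced R848-induced SEAP reporter secretion, detected by QUANTI-Blue absorbance at 620–655 nm after 2 h. Reporter cells were exposed to compound dilutions in DMEM/10% FBS, 1% DMSO, for 20 h at 37° C.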
On to `[2H]c1ccc2c(N3C[C@H](CN4CCN(c5nc(C)cc(N6C[C@H](OC)[C@@H](N)C6)n5)CC4)O[C@H](C)C3)ccc(C#N)c2n1` [Example 134, 5-[(2S,6R)-2-[[4-[4-[(3S,4S)-3-amino-4-methoxy-pyrrolidin-1-yl]-6-methyl-pyrimidin-2-yl]piperazin-1-yl]methyl]-6-methyl-morpholin-4-yl]-2-deuterio-quinoline-8-carbonitrile], for which the IC50 stood at 1 nM.
Regarding `[2H]c1ccc2c(N3C[C@H](CN4CCN(c5nc(C)cc(N6CC(C)(N)C6)n5)CC4)O[C@H](C)C3)ccc(C#N)c2n1` [Example 135, 5-[(2S,6R)-2-[[4-[4-(3-amino-3-methyl-azetidin-1-yl)-6-methyl-pyrimidin-2-yl]piperazin-1-yl]methyl]-6-methyl-morpholin-4-yl]-2-deuterio-quinoline-8-carbonitrile], the IC50 turned out to be 1 nM.
Consider `[2H]c1ccc2c(N3C[C@H](CN4CCN(c5nc(C)cc(N6CC(N)C6)n5)CC4)O[C@H](C)C3)ccc(C#N)c2n1` [Example 136, 5-[(2S,6R)-2-[[4-[4-(3-aminoazetidin-1-yl)-6-methyl-pyrimidin-2-yl]piperazin-1-yl]methyl]-6-methyl-morpholin-4-yl]-2-deuterio-quinoline-8-carbonitrile], for which the IC50 was found to be 1 nM.
Under `[2H]c1ccc2c(N3C[C@H](CN4CCN(c5ccc(N6CC(C)(N)C6)nc5C)CC4)O[C@H](C)C3)ccc(C#N)c2n1` [Example 137, 5-[(2S,6R)-2-[[4-[6-(3-amino-3-methyl-azetidin-1-yl)-2-methyl-3-pyridyl]piperazin-1-yl]methyl]-6-methyl-morpholin-4-yl]-2-deuterio-quinoline-8-carbonitrile] stands 11 nM.
Turning to `[2H]c1ccc2c(N3C[C@H](CN4CC(c5ccc(N6CC(C)(N)C6)nc5)C4)O[C@H](C)C3)ccc(C#N)c2n1` [Example 138, 5-[(2S,6R)-2-[[3-[6-(3-amino-3-methyl-azetidin-1-yl)-3-pyridyl]azetidin-1-yl]methyl]-6-methyl-morpholin-4-yl]-2-deuterio-quinoline-8-carbonitrile], the IC50 is 19 nM.
Consider `[2H]c1ccc2c(N3C[C@H](CN4CCN(c5ncc(N6CC(C)(N)C6)cc5C)CC4)O[C@H](C)C3)ccc(C#N)c2n1` [Example 139, 5-[(2S,6R)-2-[[4-[5-(3-amino-3-methyl-azetidin-1-yl)-3-methyl-2-pyridyl]piperazin-1-yl]methyl]-6-methyl-morpholin-4-yl]-2-deuterio-quinoline-8-carbonitrile], for which the IC50 is 13 nM.
As for `[2H]c1ccc2c(N3C[C@H](CN4CC(c5ccc(N6C[C@H](OC)[C@@H](N)C6)cc5)C4)O[C@H](C)C3)ccc(C#N)c2n1` [Example 140, 5-[(2S,6R)-2-[[3-[4-[(3S,4S)-3-amino-4-methoxy-pyrrolidin-1-yl]phenyl]azetidin-1-yl]methyl]-6-methyl-morpholin-4-yl]-2-deuterio-quinoline-8-carbonitrile], the IC50 came out at 25 nM.
For `[2H]c1ccc2c(N3C[C@H](CN4CC(c5ccc(N6CC(C)(N)C6)cc5)C4)O[C@H](C)C3)ccc(C#N)c2n1` [Example 141, 5-[(2S,6R)-2-[[3-[4-(3-amino-3-methyl-azetidin-1-yl)phenyl]azetidin-1-yl]methyl]-6-methyl-morpholin-4-yl]-2-deuterio-quinoline-8-carbonitrile], the IC50 came out at 9 nM.
With `[2H]c1ccc2c(N3C[C@H](CN4CCN(c5ncc(N6C[C@@H](N)[C@H](OC)C6)cc5C)CC4)O[C@H](C)C3)ccc(C#N)c2n1` [Example 142, 5-[(2S,6R)-2-[[4-[5-[(3R,4R)-3-amino-4-methoxy-pyrrolidin-1-yl]-3-methyl-2-pyridyl]piperazin-1-yl]methyl]-6-methyl-morpholin-4-yl]-2-deuterio-quinoline-8-carbonitrile] the figure was 17 nM; with `[2H]c1ccc2c(N3C[C@H](CN4CCN(c5ccc(N6C[C@@H](N)[C@H](OC)C6)nc5)CC4)O[C@H](C)C3)ccc(C#N)c2n1` [Example 143, 5-[(2S,6R)-2-[[4-[6-[(3R,4R)-3-amino-4-methoxy-pyrrolidin-1-yl]-3-pyridyl]piperazin-1-yl]methyl]-6-methyl-morpholin-4-yl]-2-deuterio-quinoline-8-carbonitrile], 8 nM.
On to `[2H]c1ccc2c(N3C[C@H](CN4CCN(c5nc(C)cc(N6C[C@@H](N)[C@H](OC)C6)n5)CC4)O[C@H](C)C3)ccc(C#N)c2n1` [Example 144, 5-[(2S,6R)-2-[[4-[4-[(3R,4R)-3-amino-4-methoxy-pyrrolidin-1-yl]-6-methyl-pyrimidin-2-yl]piperazin-1-yl]methyl]-6-methyl-morpholin-4-yl]-2-deuterio-quinoline-8-carbonitrile], for which the IC50 amounted to 1 nM.
As to `[2H]c1ccc2c(N3C[C@H](CN4CC(c5cnc(N6CC(C)(N)C6)cc5C)C4)O[C@H](C)C3)ccc(C#N)c2n1` [Example 145, 5-[(2S,6R)-2-[[3-[6-(3-amino-3-methyl-azetidin-1-yl)-4-methyl-3-pyridyl]azetidin-1-yl]methyl]-6-methyl-morpholin-4-yl]-2-deuterio-quinoline-8-carbonitrile], the IC50 stood at 14 nM.
For `[2H]c1ccc2c(N3C[C@H](CN4CC(c5cnc(N6C[C@@H](N)[C@H](OC)C6)cc5C)C4)O[C@H](C)C3)ccc(C#N)c2n1` [Example 146, 5-[(2S,6R)-2-[[3-[6-[(3R,4R)-3-amino-4-methoxy-pyrrolidin-1-yl]-4-methyl-3-pyridyl]azetidin-1-yl]methyl]-6-methyl-morpholin-4-yl]-2-deuterio-quinoline-8-carbonitrile], the IC50 amounted to 14 nM.
With `[2H]c1ccc2c(N3C[C@H](CN4CCN(c5ccc(N6CC(C)(N)C6)c(C)n5)CC4)O[C@H](C)C3)ccc(C#N)c2n1` [Example 147, 5-[(2S,6R)-2-[[4-[5-(3-amino-3-methyl-azetidin-1-yl)-6-methyl-2-pyridyl]piperazin-1-yl]methyl]-6-methyl-morpholin-4-yl]-2-deuterio-quinoline-8-carbonitrile] the figure was 11 nM; with `Cc1cc(N2CC(C)(N)C2)cnc1N1CCN(C[C@H]2CN(c3ccc(C#N)n4ncc(F)c34)C[C@@H](C)O2)CC1` [Example 148, 4-[(2S,6R)-2-[[4-[5-(3-amino-3-methyl-azetidin-1-yl)-3-methyl-2-pyridyl]piperazin-1-yl]methyl]-6-methyl-morpholin-4-yl]-3-fluoro-pyrazolo[1,5-a]pyridine-7-carbonitrile], 49 nM.
Turning to `[2H]c1ccc2c(N3C[C@H](CN4CC(c5ccc(N6C[C@@H](N)[C@H](OC)C6)nc5)C4)O[C@H](C)C3)ccc(C#N)c2n1` [Example 149, 5-[(2S,6R)-2-[[3-[6-[(3R,4R)-3-amino-4-methoxy-pyrrolidin-1-yl]-3-pyridyl]azetidin-1-yl]methyl]-6-methyl-morpholin-4-yl]-2-deuterio-quinoline-8-carbonitrile], the IC50 was 12 nM.
With `[2H]c1ccc2c(N3C[C@H](CN4CCN(c5ccc(N6C[C@H](N)[C@@H](F)C6)nc5)CC4)O[C@H](C)C3)ccc(C#N)c2n1` [Example 150, 5-[(2S,6R)-2-[[4-[6-[(3S,4S)-3-amino-4-fluoro-pyrrolidin-1-yl]-3-pyridyl]piperazin-1-yl]methyl]-6-methyl-morpholin-4-yl]-2-deuterio-quinoline-8-carbonitrile], the IC50 worked out at 7 nM.
As for `[2H]c1ccc2c(N3C[C@H](CN4CCN(c5ccc(N6C[C@@H]7C[C@H]6CN7)nc5)CC4)O[C@H](C)C3)ccc(C#N)c2n1` [Example 151, 2-deuterio-5-[(2S,6R)-2-[[4-[6-[(1S,4S)-2,5-diazabicyclo[2.2.1]heptan-2-yl]-3-pyridyl]piperazin-1-yl]methyl]-6-methyl-morpholin-4-yl]quinoline-8-carbonitrile], the IC50 worked out at 23 nM.
Under `[2H]c1ccc2c(N3C[C@H](CN4CCN(c5ccc(N6CC7(CNCCO7)C6)nc5)CC4)O[C@H](C)C3)ccc(C#N)c2n1` [Example 152, 2-deuterio-5-[(2R,6S)-2-methyl-6-[[4-[6-(5-oxa-2,8-diazaspiro[3.5]nonan-2-yl)-3-pyridyl]piperazin-1-yl]methyl]morpholin-4-yl]quinoline-8-carbonitrile] stands 17 nM.
